IC50 data for 32 compounds are collected here from US9416111B2, “Substituted diazine and triazine spleen tyrosine kinease (Syk) inhibitors” (Merck Sharp & Dohme Corp., priority 2012, dated 2016).

SMILES strings stand for the structures. Several values for one entry are separate records, joined by “and”; a condition that tells them apart may be missing. Equal values may be shown once. Some results are limits rather than exact numbers.

For the first experiment, the target named is T1, recombinant human GST-SYK (Homo sapiens, UniProt P43405).
T1 construct: purchased Carna Biosciences 08-176
Description: Homogeneous Time-Resolved Fluorescence (HTRF) assay for the recombinant human Syk enzyme. It is filed as biochemical. The settings on record: GST-hSYK 5 pM, ATP 25 μM, IC50 rated in classes, read-out: rhSYK Activity. On the procedure: Homogeneous Time-Resolved Fluorescence (HTRF) Assay for the Recombinant Human Syk Enzyme
A recombinant GST-hSYK fusion protein was used to measure potency of compounds to inhibit human Syk activity. The recombinant human GST-SYK (Carna Biosciences #08-176) (5 pM final concentration) was incubated with various concentrations of the inhibitor diluted in DMSO (0.1% final concentration) for 10 minutes at room temperature in 15 mM Tris-HCl (pH 7.5), 0.01% tween 20, 2 mM DTT in 384 well plate format. To initiate the reaction the biotinylated substrate peptide (250 nM final concentration) that contains the phosphorylation site for Syk was added with magnesium (5 mM final concentration) and ATP (25 μM final concentration). Final volume of the reaction was 10 μL. Phosphorylation of the peptide was allowed to proceed for 45′ at room temperature. To quench the reaction and detect the phosphorylated product, 2 nM of a Europium-anti-phosphotyrosine antibody (Perkin Elmer #AD0161) and 70 nM SA-APC (Perkin-Elmer #CR130-100) were added together in 15 mM Tris pH 7.5, 40 mM EDTA, 0.01% tween 20. Final volume of the quenching solution was 10 μL. The resulting HTRF signal was measured after 30 minutes on an EnVision (Perkin-Elmer) reader using a time-resolved fluorescence protocol.
A general note: TR-FRET usually uses a lanthanide donor and a delayed reading to cut background.
`Cc1cc(Nc2nccc(C(F)(F)F)n2)cc(-c2cncc(CCC(=O)O)n2)c1` [Example 3.18, 3-[6-(3-methyl-5-{[4-(trifluoromethyl)pyrimidin-2-yl]amino}phenyl)pyrazin-2-yl]propanoic acid]: the IC50 is less than 100 nM.
On the same count and under the same terms, under `Cc1cc(Nc2nccc(C(F)(F)F)n2)cc(-c2cnc(N(C)CC(O)CO)nc2)c1` (centres unmarked) [Example 2.43, 3-{methyl[5-(3-methyl-5-{[4-(trifluoromethyl)pyrimidin-2-yl]amino}phenyl)pyrimidin-2-yl]amino}propane-1,2-diol] stands less than 100 nM.
Consider `CCOC(=O)CCc1cncc(-c2cc(C)cc(Nc3nccc(C)n3)c2)n1` [Example 3.19, ethyl 3-(6-{3-methyl-5-[(4-methylpyrimidin-2-yl)amino]phenyl}pyrazin-2-yl)propanoate], for which the IC50 was 100 to 1000 nM.
Regarding `COc1ccnc(Nc2cc(C)cc(-c3cc(CCC(=O)O)ncn3)c2)n1` [Example 3.47, 3-(6-{3-[(4-methoxypyrimidin-2-yl)amino]-5-methylphenyl}pyrimidin-4-yl)propanoic acid], the IC50 lay in the range of 100 to 1000 nM.
On to `Cc1cc(Nc2nccc(C(F)F)n2)cc(-c2cnc([C@H](C)[C@H]3CC[C@H](C(=O)O)[C@H](C)C3)nc2)c1` (single isomer, unassigned) [Example 7.4], for which the IC50 was less than 100 nM.
For the compound `Cc1cc(Nc2nccc(C(F)(F)F)n2)cc(-c2ccc(N(CCN(C)C)C(=O)N(C)C)nn2)c1` [Example 3.35, 1-[2-(dimethylamino)ethyl]-3,3-dimethyl-1-[6-(3-methyl-5-{[4-(trifluoromethyl)pyrimidin-2-yl]amino}phenyl)pyridazin-3-yl]urea], the IC50 lay in the range of 100 to 1000 nM.
Still for that read-out and setting: in the case of `COc1ncc(-c2cc(C)cc(Nc3nccc(C(F)(F)F)n3)c2)cn1` [Example 1.2, N-[3-(2-methoxypyrimidin-5-yl)-5-methylphenyl]-4-(trifluoromethyl)pyrimidin-2-amine] it was less than 100 nM; in that of `CCOC(=O)CCc1cc(-c2cc(C)cc(Nc3nccc(C(F)(F)F)n3)c2)ncn1` [Example 3.49, ethyl 3-[6-(3-methyl-5-{[4-(trifluoromethyl)pyrimidin-2-yl]amino}phenyl)pyrimidin-4-yl]propanoate], 100 to 1000 nM; in that of `COc1ccnc(Nc2cc(C)cc(-c3cnc(CCC(=O)O)nc3)c2)n1` [Example 1.5, 3-(5-{3-[(4-methoxypyrimidin-2-yl)amino]-5-methylphenyl}pyrimidin-2-yl)propanoic acid], less than 100 nM.
In the case of `CCOC(=O)CCc1ccc(-c2cccc(Nc3nccc(C(F)(F)F)n3)c2)nn1` [Example 3.24, ethyl 3-[6-(3-{[4-(trifluoromethyl)pyrimidin-2-yl]amino}phenyl)pyridazin-3-yl]propanoate], the IC50 was in the range of 1000 to 10000 nM.
Still for that read-out and setting: in the case of `Cc1cc(Nc2nccc(C(F)(F)F)n2)cc(-c2cnc(NC3(C(=O)O)CC3)nc2)c1` [Example 2.3, 1-{[5-(3-methyl-5-{[4-(trifluoromethyl)pyrimidin-2-yl]amino}phenyl)pyrimidin-2-yl]amino}cyclopropanecarboxylic acid] it was less than 100 nM; in that of `Cc1cc(Nc2nccc(C(F)(F)F)n2)cc(-c2cnc(N3CCC(=O)N(C)CC3)nc2)c1` [Example 2.24, 4-methyl-1-[5-(3-methyl-5-{[4-(trifluoromethyl)pyrimidin-2-yl]amino}phenyl)pyrimidin-2-yl]-1,4-diazepan-5-one], less than 100 nM.
Still for that read-out and setting: under `Cc1cc(Nc2nccc(C(F)(F)F)n2)cc(-c2cnc(NCCO)nc2)c1` [Example 2.62, 2-{[5-(3-methyl-5-{[4-(trifluoromethyl)pyrimidin-2-yl]amino}phenyl)pyrimidin-2-yl]amino}ethanol] stands less than 100 nM; under `Cc1cc(Nc2nccc(C(F)(F)F)n2)cc(-c2cnc(N)nc2)c1` [Example 1.3, N-[3-(2-aminopyrimidin-5-yl)-5-methylphenyl]-4-(trifluoromethyl)pyrimidin-2-amine], less than 100 nM.
In the case of `CCOC(=O)CCc1ncc(-c2cc(C)cc(Nc3nccc(C4CC4)n3)c2)cn1` [Example 1.6, ethyl 3-(5-{3-[(4-cyclopropylpyrimidin-2-yl)amino]-5-methylphenyl}pyrimidin-2-yl)pronanoate], the IC50 is less than 100 nM.
Consider `COCC(Nc1ncc(-c2cc(C)cc(Nc3nccc(C(F)(F)F)n3)c2)cn1)C(=O)O` (racemic) [Example 2.38, O-methyl-N-[5-(3-methyl-5-{[4-(trifluoromethyl)pyrimidin-2-yl]amino}phenyl)pyrimidin-2-yl]serine], for which the IC50 is less than 100 nM.
With `Cc1cc(Nc2nccc(C(F)F)n2)cc(-c2cnc([C@H](C)[C@H]3CC[C@H](C(=O)O)[C@H](C)C3)nc2)c1` (single isomer, unassigned) [Example 7.8], the IC50 was less than 100 nM.
With `Cc1cc(Nc2nccc(C)n2)cc(-c2cnc(CCC(=O)O)nc2)c1` [Example 3.55, 3-(5-{3-methyl-5-[(4-methylpyrimidin-2-yl)amino]phenyl}pyrimidin-2-yl)propanoic acid], the IC50 was 100 to 1000 nM and < 100 nM.
Still for that read-out and setting: in the case of `Cc1cc(Nc2nccc(C(F)(F)F)n2)cc(-c2cnc(N(C)CC(=O)O)nc2)c1` [Example 2.32, N-methyl-N-[5-(3-methyl-5-{[4-(trifluoromethyl)pyrimidin-2-yl]amino}phenyl)pyrimidin-2-yl]glycine] it was less than 100 nM; in that of `Cc1cc(Nc2nccc(C(F)F)n2)cc(-c2cnc([C@H](C)[C@H]3CC[C@H](C(=O)O)[C@H](C)C3)nc2)c1` (single isomer, unassigned) [Example 7.7], less than 100 nM; in that of `Cc1cc(Nc2nccc(C(F)(F)F)n2)cc(-c2cnc(N3CCCC[C@H]3C(=O)O)nc2)c1` [Example 2.56, (2S)-1-[5-(3-methyl-5-{[4-(trifluoromethyl)pyrimidin-2-yl]amino}phenyl)pyrimidin-2-yl]piperidine-2-carboxylic acid], less than 100 nM.
Still for that read-out and setting: in the case of `Cc1cc(Nc2nccc(C(F)(F)F)n2)cc(-c2cnc(NC(C)c3ccccn3)nc2)c1` (centres unmarked) [Example 2.21, N-(3-methyl-5-{2-[(1-pyridin-2-ylethyl)amino]pyrimidin-5-yl}phenyl)-4-(trifluoromethyl)pyrimidin-2-amine] it was less than 100 nM; in that of `Cc1cc(Nc2nccc(C(F)(F)F)n2)cc(-c2cnc(N(C)CCO)nc2)c1` [Example 2.30, 2-{methyl[5-(3-methyl-5-{[4-(trifluoromethyl)pyrimidin-2-yl]amino}phenyl)pyrimidin-2-yl]amino}ethanol], less than 100 nM.
As for `Cc1cc(Nc2nccc(C(F)(F)F)n2)cc(-c2cnc(NC(C)CO)nc2)c1` (centres unmarked) [Example 2.58, 2-{[5-(3-methyl-5-{[4-(trifluoromethyl)pyrimidin-2-yl]amino}phenyl)pyrimidin-2-yl]amino}propan-1-ol], the IC50 is less than 100 nM.
As for `Cc1cc(Nc2nccc(C(F)(F)F)n2)cc(-c2cnc(NCC(O)CC(=O)O)nc2)c1` (centres unmarked) [Example 2.61], the IC50 was less than 100 nM.
`CCOC(=O)CCc1cnc(-c2cc(C)cc(Nc3nccc(C4CC4)n3)c2)cn1` [Example 3.11, ethyl 3-(5-{3-[(4-cyclopropylpyrimidin-2-yl)amino]-5-methylphenyl}pyrazin-2-yl)propanoate]: the IC50 was less than 100 nM.
Take `Cc1cc(Nc2nccc(C(F)(F)F)n2)cc(-c2cnc(N3CCNC(=O)C3)nc2)c1` [Example 2.46, 4-[5-(3-methyl-5-{[4-(trifluoromethyl)pyrimidin-2-yl]amino}phenyl)pyrimidin-2-yl]piperazin-2-one]: the IC50 is less than 100 nM.
As for `CCOC(=O)CCc1cnc(-c2cccc(Nc3nccc(C(F)(F)F)n3)c2)cn1` [Example 3.3, ethyl 3-[5-(3-{[4-(trifluoromethyl)pyrimidin-2-yl]amino}phenyl)pyrazin-2-yl]propanoate], the IC50 was in the range of 1000 to 10000 nM.
As for `Cc1cc(Nc2nccc(C(F)(F)F)n2)cc(-c2cnc(N3CCC(C(=O)O)CC3)nc2)c1` [Example 2.79, 1-[5-(3-methyl-5-{[4-(trifluoromethyl)pyrimidin-2-yl]amino}phenyl)pyrimidin-2-yl]piperidine-4-carboxylic acid], the IC50 is less than 100 nM.
Still for that read-out and setting: in the case of `Cc1cc(Nc2nccc(C(F)(F)F)n2)cc(-c2cnc(NC3(C(=O)O)CCC3)nc2)c1` [Example 2.4, l-{[5-(3-methyl-5-{[4-(trifluoromethyl)pyrimidin-2-yl]amino}phenyl)pyrimidin-2-yl]amino}cyclobutanecarboxylic acid] it was less than 100 nM.
Same read-out and setting: in the case of `Cc1cc(Nc2nccc(C(F)F)n2)cc(-c2cnc([C@@H](C)[C@H]3CC[C@H](C(=O)O)CC3)nc2)c1` (single isomer, unassigned) [Example 6.2, trans-4-{1-[5-(3-{[4-(difluoromethyl)pyrimidin-2-yl]amino}-5-methylphenyl)pyrimidin-2-yl]ethyl}cyclohexanecarboxylic acid] it was less than 100 nM; in that of `Cc1cc(Nc2nccc(C3CC3)n2)cc(-c2cnc(CCC(=O)O)cn2)c1` [Example 3.12, 3-(5-{3-[(4-cyclopropylpyrimidin-2-yl)amino]-5-methylphenyl}pyrazin-2-yl)propanoic acid], less than 100 nM.

The experiment is the same for the next values; noted with them: GST-hSYK 5 pM, ATP 25 μM, values in text, read-out: IC50.
`Cc1cc(Nc2nccc(C(F)F)n2)cc(-c2cnc([C@H](C)[C@H]3CC[C@H](C(=O)O)[C@H](C)C3)nc2)c1` (single isomer, unassigned) [Example 7.4]: the IC50 is 0.8 nM.
For `Cc1cc(Nc2nccc(C(F)F)n2)cc(-c2cnc([C@H](C)[C@H]3CC[C@H](C(=O)O)[C@H](C)C3)nc2)c1` (single isomer, unassigned) [Example 7.7], the IC50 is 1.2 nM.
In the case of `Cc1cc(Nc2nccc(C(F)F)n2)cc(-c2cnc([C@@H](C)[C@H]3CC[C@H](C(=O)O)CC3)nc2)c1` (single isomer, unassigned) [Example 6.2, trans-4-{1-[5-(3-{[4-(difluoromethyl)pyrimidin-2-yl]amino}-5-methylphenyl)pyrimidin-2-yl]ethyl}cyclohexanecarboxylic acid], the IC50 amounted to 0.3 nM.
